In brackets after ≈: the same amount, converted by molar mass. Activity calls are given as the source filed them. The calls are words filed in the database; no cut-off is given here.
Experiments:
Rhizoctonia solani = assay: In vivo fungicidal activity against Rhizoctonia solani infected in cucumber plants assessed as inhibition of disease symptoms at 200 ug/ml treated one day prior to fungal spore inoculation measured after one week; format: functional, organism-based
Botrytis cinerea = assay: In vivo fungicidal activity against Botryotinia fuckeliana infected in cucumber plants assessed as inhibition of disease symptoms at 200 ug/ml treated one day prior to fungal spore inoculation measured after one week; format: functional, organism-based
Podosphaera fuliginea [1] = assay: In vivo fungicidal activity against Podosphaera fuliginea infected cucumber plants assessed as inhibition of disease symptoms at 200 ug/ml treated one day prior to fungal spore inoculation measured after one week; format: functional
[2] = test system: Pseudoperonospora cubensis; assay: In vivo fungicidal activity against Pseudoperonospora cubensis infected in cucumber plants assessed as inhibition of disease symptoms at 200 ug/ml treated one day prior to fungal spore inoculation measured after one week; format: functional
Tetranychus cinnabarinus = assay: In vivo insecticidal activity against Tetranychus cinnabarinus (carmine spider mite) assessed as mortality at 500 ug/ml after 72 hr; format: functional
Mythimna separata [3] = assay: In vivo insecticidal activity against Mythimna separata (Oriental armyworm) assessed as mortality at 500 ug/ml after 72 hr; format: functional
Aphis medicaginis = assay: In vivo insecticidal activity against Aphis medicaginis assessed as mortality at 1 g/l after 72 hr; format: functional, organism-based
Nilaparvata lugens = assay: In vivo insecticidal activity against fifth instar larval stage of Nilaparvata lugens (brown planthopper) in […] rice seedlings assessed as mortality at 1 g/l treated for 5 secs before larval infestation measured after 72 hr; format: functional, organism-based
Mythimna separata [4] = assay: In vivo insecticidal activity against Mythimna separata (Oriental armyworm) assessed as mortality after 72 hr; format: functional
Podosphaera fuliginea [5] = assay: In vivo fungicidal activity against Podosphaera fuliginea infected cucumber plants assessed as inhibition of disease symptoms treated one day prior to fungal spore inoculation measured after one week; format: functional, organism-based
[6] = test system: Pseudoperonospora cubensis; assay: In vivo fungicidal activity against Pseudoperonospora cubensis infected in cucumber plants assessed as inhibition of disease symptoms treated one day prior to fungal spore inoculation measured after one week; format: functional, organism-based

Structure (SMILES) | inhibition (Rhizoctonia solani) | inhibition (Botrytis cinerea) | inhibition in vivo at 200 µg/mL (Podosphaera fuliginea [1]) | inhibition in vivo at 200 µg/mL [2] | mortality at 500 µg/mL (Tetranychus cinnabarinus) | mortality at 500 µg/mL (Mythimna separata [3]) | mortality (Aphis medicaginis) | mortality (Nilaparvata lugens) | LC50 (Mythimna separata [4]) | IC50 (Podosphaera fuliginea [5]) | IC50 [6]
CO/C=C(/C(=O)OC)c1ccccc1COc1ccc(C2=NN(C(C)=O)C(c3ccc(OC)cc3)C2)cc1 (stereo not drawn) | inactive | inactive | < 60% | < 60% | – | – | – | – | – | – | –
CO/C=C(/C(=O)OC)c1ccccc1COc1ccccc1C1=NN(C(C)=O)C(c2ccc(Cl)cc2)C1 (stereo not drawn) | inactive | inactive | < 60% | < 60% | – | – | – | – | – | – | –
CO/C=C(/C(=O)OC)c1ccccc1COc1ccc(C2=NN(C(C)=O)C(c3ccc4c(c3)OCO4)C2)cc1 (stereo not drawn) | inactive | inactive | < 60% | 100% | – | – | – | – | – | – | –
CO/C=C(/C(=O)OC)c1ccccc1COc1ccc(C2=NN(C(C)=O)C(c3ccc(Br)cc3)C2)cc1 (stereo not drawn) | inactive | inactive | < 60% | < 60% | – | – | – | – | – | – | –
CO/C=C(/C(=O)OC)c1ccccc1COc1cccc(C2=NN(C(C)=O)C(c3ccc(C(C)(C)C)cc3)C2)c1 (stereo not drawn) | inactive | inactive | < 60% | ≥ 80% | ≥ 90% | 100% | inactive | inactive | – | – | –
CO/C=C(/C(=O)OC)c1ccccc1COc1ccc(C2=NN(C(C)=O)C(c3ccccc3F)C2)cc1 (stereo not drawn) | inactive | inactive | < 60% | < 60% | – | – | – | – | – | – | –
CO/C=C(/C(=O)OC)c1ccccc1COc1ccc(C2=NN(C(C)=O)C(c3ccc(C)cc3)C2)cc1 (stereo not drawn) | inactive | inactive | < 60% | < 60% | – | – | – | – | – | – | –
CO/C=C(/C(=O)OC)c1ccccc1COc1cccc(C2=NN(C(C)=O)C(c3ccc4c(c3)OCO4)C2)c1 (stereo not drawn) | inactive | inactive | ≥ 90% | 100% | < 60% | 100% | inactive | inactive | 26.6 mg/L (≈ 50.3 µM) | 57.6 mg/L (≈ 109 µM) | 26.6 mg/L (≈ 50.3 µM)
CO/C=C(/C(=O)OC)c1ccccc1COc1ccccc1C1=NN(C(C)=O)C(c2cccc(OC)c2)C1 (stereo not drawn) | inactive | inactive | < 60% | < 60% | – | – | – | – | – | – | –
CO/C=C(/C(=O)OC)c1ccccc1COc1cccc(C2=NN(C(C)=O)C(c3cccs3)C2)c1 (stereo not drawn) | inactive | inactive | < 60% | 100% | – | – | – | – | – | – | –
CCOCn1c(-c2ccc(Cl)cc2)c(C#N)c(Br)c1C(F)(F)F [CHLORFENAPYR] | – | – | – | – | – | 100% | – | – | 18.5 mg/L (≈ 45.4 µM) | – | –
CO/N=C(/C(=O)OC)c1ccccc1COc1ccccc1C [KRESOXIM-METHYL] | – | – | 100% | ≥ 90% | – | – | – | – | – | 1.6 mg/L (≈ 5.11 µM) | 24.1 mg/L (≈ 76.9 µM)
CO/C=C(/C(=O)OC)c1ccccc1COc1ccc(C2=NN(C(C)=O)C(c3cccc(F)c3)C2)cc1 (stereo not drawn) | inactive | inactive | < 60% | < 60% | – | – | – | – | – | – | –
CCc1ccc(C2CC(c3ccccc3OCc3ccccc3/C(=C\OC)C(=O)OC)=NN2C(C)=O)cc1 (stereo not drawn) | inactive | inactive | < 60% | 100% | < 60% | 100% | inactive | inactive | – | – | –
CO/C=C(/C(=O)OC)c1ccccc1COc1ccccc1C1=NN(C(C)=O)C(c2ccc(Br)cc2)C1 (stereo not drawn) | inactive | inactive | < 60% | < 60% | – | – | – | – | – | – | –
CO/C=C(/C(=O)OC)c1ccccc1COc1cccc(C2=NN(C(C)=O)C(c3cc(OC)c(OC)c(OC)c3)C2)c1 (stereo not drawn) | inactive | inactive | < 60% | < 60% | – | – | – | – | – | – | –
CO/C=C(/C(=O)OC)c1ccccc1COc1ccc(C2=NN(C(C)=O)C(c3ccc(C)c(C)c3)C2)cc1 (stereo not drawn) | inactive | inactive | < 60% | < 60% | – | – | – | – | – | – | –
CO/C=C(/C(=O)OC)c1ccccc1COc1ccc(C2=NN(C(C)=O)C(c3ccc(F)cc3)C2)cc1 (stereo not drawn) | inactive | inactive | < 60% | < 60% | – | – | – | – | – | – | –

Structure (SMILES) | inhibition (Rhizoctonia solani) | inhibition (Botrytis cinerea) | inhibition in vivo at 200 µg/mL (Podosphaera fuliginea [1]) | inhibition in vivo at 200 µg/mL [2] | mortality at 500 µg/mL (Tetranychus cinnabarinus) | mortality at 500 µg/mL (Mythimna separata [3]) | mortality (Aphis medicaginis) | mortality (Nilaparvata lugens) | LC50 (Mythimna separata [4]) | IC50 (Podosphaera fuliginea [5]) | IC50 [6]
CCOc1ccc(C2CC(c3ccc(OCc4ccccc4/C(=C\OC)C(=O)OC)cc3)=NN2C(C)=O)cc1 (stereo not drawn) | inactive | inactive | < 60% | < 60% | – | – | – | – | – | – | –
CO/C=C(/C(=O)OC)c1ccccc1COc1ccccc1C1=NN(C(C)=O)C(c2ccc(Cl)c(Cl)c2)C1 (stereo not drawn) | inactive | inactive | < 60% | < 60% | – | – | – | – | – | – | –
CO/C=C(/C(=O)OC)c1ccccc1COc1ccc(C2=NN(C(C)=O)C(c3cccs3)C2)cc1 (stereo not drawn) | inactive | inactive | ≥ 60% | ≥ 70% | – | – | – | – | – | – | –
CCOc1ccc(C2CC(c3cccc(OCc4ccccc4/C(=C\OC)C(=O)OC)c3)=NN2C(C)=O)cc1 (stereo not drawn) | inactive | inactive | < 60% | 100% | – | – | – | – | – | – | –
CO/C=C(/C(=O)OC)c1ccccc1COc1ccccc1C1=NN(C(C)=O)C(c2ccc(C)c(C)c2)C1 (stereo not drawn) | inactive | inactive | < 60% | < 60% | – | – | – | – | – | – | –
CO/C=C(/C(=O)OC)c1ccccc1COc1cccc(C2=NN(C(C)=O)C(c3ccccc3F)C2)c1 (stereo not drawn) | inactive | inactive | < 60% | ≥ 90% | – | – | – | – | – | – | –
CO/C=C(/C(=O)OC)c1ccccc1COc1cccc(C2=NN(C(C)=O)C(c3ccc(Cl)cc3)C2)c1 (stereo not drawn) | inactive | inactive | < 60% | ≥ 60% | < 60% | 100% | inactive | inactive | – | – | –
CO/C=C(/C(=O)OC)c1ccccc1COc1cccc(C2=NN(C(C)=O)C(c3ccccc3Br)C2)c1 (stereo not drawn) | inactive | inactive | < 60% | 100% | – | – | – | – | – | – | –
CO/C=C(/C(=O)OC)c1ccccc1COc1ccc(C2=NN(C(C)=O)C(c3cccc(OC)c3)C2)cc1 (stereo not drawn) | inactive | inactive | < 60% | ≥ 70% | – | – | – | – | – | – | –
CO/C=C(/C(=O)OC)c1ccccc1COc1cccc(C2=NN(C(C)=O)C(c3cccc(F)c3)C2)c1 (stereo not drawn) | inactive | inactive | < 60% | < 60% | – | – | – | – | – | – | –
CCc1ccc(C2CC(c3ccc(OCc4ccccc4/C(=C\OC)C(=O)OC)cc3)=NN2C(C)=O)cc1 (stereo not drawn) | inactive | inactive | < 60% | 100% | – | – | – | – | – | – | –
CO/C=C(/C(=O)OC)c1ccccc1COc1ccc(C2=NN(C(C)=O)C(c3ccc(Cl)cc3Cl)C2)cc1 (stereo not drawn) | inactive | inactive | < 60% | < 60% | – | – | – | – | – | – | –
CO/C=C(/C(=O)OC)c1ccccc1COc1cccc(C2=NN(C(C)=O)C(c3ccccc3OC)C2)c1 (stereo not drawn) | inactive | inactive | ≥ 80% | ≥ 80% | – | – | – | – | – | – | –
CO/C=C(/C(=O)OC)c1ccccc1COc1ccc(C2=NN(C(C)=O)C(c3ccc(Cl)cc3)C2)cc1 (stereo not drawn) | inactive | inactive | < 60% | 100% | – | – | – | – | – | – | –
CO/C=C(/C(=O)OC)c1ccccc1COc1ccc(C2=NN(C(C)=O)C(c3cc(OC)c(OC)c(OC)c3)C2)cc1 (stereo not drawn) | inactive | inactive | < 60% | < 60% | – | – | – | – | – | – | –
CO/C=C(/C(=O)OC)c1ccccc1COc1ccccc1C1=NN(C(C)=O)C(c2ccc(OC)c(OC)c2)C1 (stereo not drawn) | inactive | inactive | < 60% | < 60% | – | – | – | – | – | – | –
CO/C=C(/C(=O)OC)c1ccccc1COc1cccc(C2=NN(C(C)=O)C(c3ccc(C)cc3)C2)c1 (stereo not drawn) | inactive | inactive | < 60% | 100% | < 60% | ≥ 90% | – | – | – | – | –
CO/C=C(/C(=O)OC)c1ccccc1COc1ccc(C2=NN(C(C)=O)C(c3ccc(C(C)(C)C)cc3)C2)cc1 (stereo not drawn) | inactive | inactive | < 60% | < 60% | – | – | – | – | – | – | –

Source: ChEMBL document CHEMBL3046363, “Synthesis, fungicidal, and insecticidal activities of beta-Methoxyacrylate-containing N-acetyl pyrazoline derivatives” (J Agric Food Chem, 2008)
